Reference: BindingDB's records for doi:10.1016/j.bioorg.2017.01.006 (Jaipur National University, 2017)

The molecules below were run against Gag-Pol polyprotein (Human immunodeficiency virus type 1 group M subtype B (isolate HXB2), UniProt P04585) (assay: RT Assay). Conditions: 37 °C.
Experimental: To a lysis buffer (20 μl), 4-6 ng recombinant HIV-1-RT was added in separate reaction tubes. Lysis buffer without HIV-1-RT was used as a negative control. Standards and test compound RT inhibitor (10 μg) were diluted with lysis buffer. This mixture was incubated for 1 h at 37 °C. For the number of micro plate modules to be used, enough foil bags were opened and micro plate modules were put into the frame in the correct orientation. The above samples were transferred to wells of microplate module. After addition it was covered with cover foil and incubated at 37 °C for 1 h. Solution was removed and rinsed five times with 250 μl of washing buffer per well for 30 s to each well. Then washing buffer was removed carefully. 200 μl of anti-DIG-POD working dilution was added to individual well and covered with cover foil and incubated at 37 °C for 1 h. Anti-DIG-POD working dilution solution was completely removed. Microplate module were washed five times for 30 s with washing buffer 250 μl and removed. 200 μl of ABTS substrate solution was added to individual well and incubated between 15 °C and 25 °C till (15−30 min) green color was obtained.
For `CC1=C(C(=O)NC(=O)CN2C(=O)C(=O)c3ccccc32)C(c2ccc(Cl)cc2)NC(=O)N1` (stereo not given) [4-(4-Chlorophenyl)-N-(2-(2,3-dioxoindolin-1-yl)acetyl)-6-methyl-2-oxo-1,2,3,4-tetrahydro pyrimidine-5-carboxamide (9h)], the IC50 was over 100 nM. `CC1=C(C(=O)NC(=O)CN2C(=O)C(=O)c3ccccc32)C(C)NC(=O)N1` (stereo not given) [N-(2-(2,3-Dioxoindolin-1-yl)acetyl)-4,6-dimethyl-2-oxo-1,2,3,4-tetrahydropyrimidine-5-carboxamide (9c)] showed an IC50 of 64 nM. Work on `CCC1NC(=O)NC(C)=C1C(=O)NC(=O)CN1C(=O)C(=O)c2ccccc21` (stereo not given) [N-(2-(2,3-Dioxoindolin-1-yl)acetyl)-4-ethyl-6-methyl-2-oxo-1,2,3,4-tetrahydropyrimidine-5-carboxamide (9d)] yielded an IC50 of 67 nM. `CCCC1NC(=O)NC(C)=C1C(=O)NC(=O)CN1C(=O)C(=O)c2ccccc21` (stereo not given) [N-(2-(2,3-Dioxoindolin-1-yl)acetyl)-6-methyl-2-oxo-4-propyl-1,2,3,4-tetrahydropyrimidine-5-carboxamide (9e)] was tested, and the IC50 was over 100 nM. With `Cc1cc(/C=C/C#N)cc(C)c1Nc1ccnc(Nc2ccc(C#N)cc2)n1` [Rilpivirine] the IC50 was 68 nM.
